Experimental findings from patent publication US12383519B2, “Application of CaMK4 in preparation of medicine for preventing and treating psoriasis” (priority 2021, dated 2025) are described below.

The test system of assay [1] is IMQ-induced psoriasiform inflammation in mice. Put plainly: IMQ-induced mouse model of psoriasis, treatment with CaMK4 inhibitor KN-93. The format is in vivo. The conditions noted are these: KN-93 0.24 mg per mouse, tail vein, vs PBS control. The procedure: (§1) An internationally used mouse model of psoriasis was used: 6-8-week-old C57BL/6 mice were given 5% IMQ applied to the shaved back skin of the mice at 62.5 mg per day for 5 days. The 6-8-week-old C57BL/6 mice were used as controls.
(§2) 1) The back skin thickness, scaling and erythema development of mice were observed on days 0 -5 after applying IMQ to the shaved back skin of mice. According to the clinical psoriasis area and severity index, the severity of back skin was evaluated by thickness, scaling and erythema. The back skin thickness was measured with vernier calipers. Scaling and erythema were scored on a scale ranging from 0-4: 0 represents none; 1 represents mild; 2 represents moderate; 3 represents significant; and 4 represents very significant.
2) Skin sections were prepared for staining with H&E, and the skin sections were stained by using the conventional universal H&E staining method.
(§3) 3) Statistical analysis of epidermal thickness. Specifically, H&E-stained sections were photographed in a double-blind manner and then measured for epidermal thickness.
5) The mRNA levels of IMQ induced mouse skin pathogenic factors were detected by quantitative PCR. The method was the same as that in the example 1.
62.5 mg of IMQ were applied to the shaved back skin of wild-type mice for 5 days. KN-93 (0.24 mg per mouse) or PBS was injected into mice through tail vein one hour before IMQ application on day 0 and day 2. Samples were collected on day 5 for subsequent experiments.

Assay [2] has the same test system. Put plainly: IMQ-induced mouse model of psoriasis, exogenous IL-10 injection. Particulars: IL-10 1 μg per mouse, tail vein, vs PBS control. In kind it is in vivo. The procedure: as §1, §2, §3
62.5 mg of IMQ were applied to the shaved back skin of wild-type (WT) mice for 5 days. IL-10 (1 μg per mouse) or PBS was injected into mice through tail vein on 1 h before IMQ application on day 0 and day 2. Samples were collected on day 5 for subsequent experiments.
1) The back skin thickness, scaling and erythema development of mice were observed on days 0 -5 after applying IMQ to the shaved back skin of mice, and scored. The method is the same as that in the example 2;
2) Statistical analysis of epidermal thickness was performed; the method is the same as that in the example 2.
3) The mRNA levels of IMQ induced mouse skin pathogenic factors were detected by quantitative PCR. The method was the same as that in the example 1.

As for `COc1ccc(S(=O)(=O)N(CCO)c2ccccc2CN(C)C/C=C/c2ccc(Cl)cc2)cc1` [KN-93], in assay [1] (day 0 and day 2), the scaling result is recorded as “reduce” and the skin thickness entry is given as “reduce”. Also, in assay [1] (day 0 and day 2, IMQ 5 days), the psoriasiform phenotype result is listed as “less than that of control mice”. Further, the epidermal thickness entry in assay [1] (H&E sections, day 5) is “reduce”. Also, in assay [1] (day 5 skin), the “mRNA level of IL-10 in skin” value is given as “higher than that of control mice” and the “proinflammatory cytokines (skin mRNA, quantitative PCR)” value was “reduce”.

B1: IL-10: exogenous interleukin-10, central anti-inflammatory mediator, injected through tail vein (protein, UniProt P22301 19-178, looked up)
Interleukin-10: SPGQGTQSENSCTHFPGNLPNMLRDLRDAFSRVKTFFQMKDQLDNLLLKESLLEDFKGYLGCQALSEMIQFYLEEVMPQAENQDPDIKAHVNSLGENLKTLRLRLRRCHRFLPCENKSKAVEQVKNAFNKLQEKGIYKAMSEFDIFINYIEAYMTMKIRN
Turning to B1, in assay [2] (day 0 and day 2), the erythema entry is on record as “reduced”, the psoriasiform phenotype result is “attenuated”, the scaling result is given as “reduced” and the skin thickness entry is reported as “reduced”. In assay [2] (day 5), the epidermal thickness result is “reduced” and the “proinflammatory cytokines (skin mRNA, quantitative PCR)” value is recorded as “reduced”.
